In patent US20230392127A1, “METHOD FOR CONSTRUCTION OF ATOPIC DERMATITIS MODEL BY USING PLURIPOTENT STEM CELL-DERIVED SKIN ORGANOID” (KANGSTEM BIOTECH CO., LTD., priority 2020, published 2023):

Assays:
[1] = system: cartilage expression markers COL2A, ACAN, and SOX9; test: Real-time PCR of cartilage expression markers in skin organoids; type: cell-based, human; conditions: skin organoids on day 69; real-time PCR normalized to GAPDH; CHIR(+) vs CHIR(-); FIG. 8
Method: As a method for evaluating gene expression, cells were lysed and genes were extracted using a lysis buffer, and gene expression was quantified using RT-PCR. To evaluate gene expression, total RNA was isolated with an RNeasy kit (Qiagen, Cat. No. 74106) and cDNA was prepared according to the manufacturer's instructions using Reverse Transcriptase III (Thermo Fisher Scientific, Cat. No. 4368814). Real-time PCR was performed using SRBR Green Master Mix (Thermo Fisher Scientific, Cat. No. A25776) and detection was performed using a Step One Plus Real-time PCR system (Applied Biosystems). The expression of genes was normalized to the expression of glyceraldehyde-3-phosphate dehydrogenase (GAPDH). The degree of gene expression was evaluated using primers specific for COL2A, ACAN, and SOX9 mRNAs.

[2] = system: induced pluripotent stem cell-derived skin organoids; test: Skin organoid size and cartilage formation after Wnt signaling pathway activation (brightfield images); type: cell-based, human
Method: A skin organoid was cultured based on the literature disclosing an existing skin organoid differentiation protocol using induced pluripotent stem cell lines (Lee, J. et al. Hair-bearing human skin generated entirely from pluripotent stem cells. Nature 582, 399-404(2020)). The induced pluripotent stem cell colony was separated into small cell populations using ReLeSR™ (Stem Cell Technology) and then separated into single cells using Accutase (ThermoFisher). For embryoid body formation, 1000 single cells were aliquoted into each well of a U-bottom low-attachment 96-well plate (Corning). Essential 8 (Gibco) supplemented with Y-27632 (20 μM) was used as an embryoid body culture solution. The single cells were cultured for 2 days until the embryoid body grew to a size of 300 to 500 μm. On day 2 of differentiation, the formed embryoid bodies were transferred to a culture solution including 2% Matrigel (Matrigel; Corning), 10 μM SB431542 (Tocris), 4 ng/ml FGF2 (PeproTech) and 15 ng/ml BMP4 (PeproTech) for non-neural ectoderm differentiation induction. […] The skin organoid to be analyzed was photographed with an EVOS XL Core brightfield system microscope (Thermo Fisher) at ×40 magnification. […]

With `Cc1c[nH]c(-c2cnc(NCCNc3ccc(C#N)cn3)nc2-c2ccc(Cl)cc2Cl)n1` [CHIR-99021] the “gene expression level of cartilage expression marker ACAN” value [1] was “remarkably reduced”, the “gene expression level of cartilage expression marker COL2A” value [1] was “remarkably reduced” and the “gene expression level of cartilage expression marker SOX9” value [1] was “remarkably reduced”. For the same compound, the “cartilage formation in skin organoids” value ([2]; 0.5 to 8 μM added on day 6, organoids on days 38, 65 and 85, vs CHIR(-), FIG. 7) was “cartilage was not formed” and the “sizes of the organoids” value ([2]; 0.5 to 8 μM added to culture solution on day 6 of differentiation, compared to skin organoids generated by the existing method (CHIR(-)), FIGS. 6 and 7) was “remarkably increased”.
